Values of other authors as cited in patent US20220087927A1, “ANTIMICROBIAL AGENT” (priority 2020, published 2022).

Tests used:
Details in all cases: suspension 10^7-10^8 per ml
Staphylococcus aureus = tested on: Staphylococcus aureus
Pseudomonas aeruginosa = tested on: Pseudomonas aeruginosa
[1] = tested on: E. coli (Escherichia coli)
[2] = tested on: Candida (candida albicians)
[3] = tested on: Koji mold (asprogillus brasiliensis)

Compound: OCCCCO [butylene glycol]
- MIC (minimum growth prevention concentration) (Staphylococcus aureus): 16%
- MIC (minimum growth prevention concentration) (Pseudomonas aeruginosa): 8%
- MIC (minimum growth prevention concentration) [1]: 10%
- MIC (minimum growth prevention concentration) [2]: 14%
- MIC (minimum growth prevention concentration) [3]: 18%

Compound: CCO [ethanol]
- MIC (minimum growth prevention concentration) (Staphylococcus aureus): 9%
- MIC (minimum growth prevention concentration) (Pseudomonas aeruginosa): 5%
- MIC (minimum growth prevention concentration) [1]: 5%
- MIC (minimum growth prevention concentration) [2]: 7%
- MIC (minimum growth prevention concentration) [3]: 5%
